Results taken from patent US20050037090A1, “Combination therapy including a cyclooxygenase-2 inhibitor and an antineoplastic agent” (priority 1998, published 2005).
Like-named read-outs stand apart in the source and are kept apart here.

How the values were obtained:
[1] = tested on: HT-29 human colon cancer cells; assay: HT-29 Model, third assay (C): tumor volume, 5-FU days 14-17 with or without celecoxib or valdecoxib in the diet (Table 21); format: in vivo, mice; conditions: for reduction in tumor volume: mice with HT-29 tumors, 5-FU i.p. 50 mg/kg days 14 through 17, celecoxib 1600 ppm, valdecoxib 160 ppm in the diet
Procedure: (§1) Mice were injected subcutaneously in the left paw (1×10^6 tumor cells suspended in 30% Matrigel) and tumor volume was evaluated using a phlethysmometer twice a week for 30-60 days. Implantation of human colon cancer cells (HT-29) into nude mice produces tumors that will reach 0.6-2 ml between 30-50 days. […] The data are expressed as the mean+/−SEM. Student's and Mann-Whitney tests were used to assess differences between means using the InStat software package.
(§2) The efficacy of both agents were determined by measuring tumor volume.

[2] = tested on: HT-29 human colon cancer cells; conditions: mice with HT-29 tumors; 5-FU i.p. 50 mg/kg on days 12, 13, 14, 15; celecoxib in the diet
Procedure: as §1, §2

[3] = tested on: HT-29 human colon cancer cells
Procedure: as §1, §2

Lewis Lung tumors = assay: Lewis Lung Model: tumor volume and lung metastasis in mice; format: in vivo
Procedure: Mice were injected subcutaneously in the left paw (1×10^6 tumor cells suspended in 30% Matrigel) and tumor volume was evaluated using a phlethysmometer twice a week for 30-60 days. […] The data are expressed as the mean+/−SEM. Student's and Mann-Whitney tests were used to assess differences between means using the InStat software package. […] Analysis of lung metastasis was done in all the animals by counting metastasis in a stereomicroscope and by histochemical analysis of consecutive lung sections.

[4] = tested on: HT-29 human colon cancer cells; assay: HT-29 Model, fourth assay (D): celecoxib 10, 40 or 160 ppm in the diet from day 10 (Table 22); format: in vivo, mice; conditions: celecoxib 10, 40 or 160 ppm in the diet beginning at day 10
Procedure: as §1

O=c1[nH]cc(F)c(=O)[nH]1 [5-FU, 5-fluorouracil]
reduction in tumor volume [1]: 35% | reduction of tumor volume [2]: 61%

NS(=O)(=O)c1ccc(-n2nc(C(F)(F)F)cc2-c2ccc(Cl)cc2)cc1 [SC-58236]
formation of lung metastasis ([3]; mice with HT-29 tumors): completely inhibited | reduction of tumor volume ([3]; mice with HT-29 tumors, COX-2 inhibitor in the diet): 89%

Cc1ccc(-c2cc(C(F)(F)F)nn2-c2ccc(S(N)(=O)=O)cc2)cc1 [celecoxib, 4-[5-(4-methylphenyl)-3-(trifluoromethyl)-1H-pyrazol-1-yl]-benzenesulfonamide]
size of the metastasic lesions in the lung, histopathological analysis (Lewis Lung tumors; celecoxib in the diet): dose-dependently reduced | reduction of surface metastasis (lung) (Lewis Lung tumors; celecoxib in the diet 480-3200 ppm): more than 50% | effect on lung metastasis (Lewis Lung tumors; celecoxib in the diet, lower dose of 160 ppm): did not affect | Tumor Volume ([1]; celecoxib 160 ppm in diet, day 11): 0.05 mL | Tumor Volume ([1]; celecoxib 160 ppm in diet, day 14): 0.13 mL | Tumor Volume ([1]; celecoxib 160 ppm in diet, day 18): 0.17 mL | Tumor Volume ([1]; celecoxib 160 ppm in diet, day 21): 0.2 mL | Tumor Volume ([1]; celecoxib 160 ppm in diet, day 28): 0.25 mL | Tumor Volume ([1]; celecoxib 160 ppm in diet, day 35): 0.35 mL | Tumor Volume ([1]; celecoxib 160 ppm in diet, day 42): 0.52 mL | reduction in tumor volume [1]: 52% | effect on HT-29 tumors, dose dependence [4]: approximate dose dependent effect | reduction of tumor volume [2]: 68%

COc1ccc2c(c1)c(CC(=O)O)c(C)n2C(=O)c1ccc(Cl)cc1 [indomethacin]
formation of lung metastasis ([3]; mice with HT-29 tumors): ineffective | inhibition of tumor formation ([3]; mouse, in vivo, 2 mg/kg/day): 77%

Cc1onc(-c2ccccc2)c1-c1ccc(S(N)(=O)=O)cc1 [valdecoxib, 4-(5-methyl-3-phenylisoxazol-4-yl)benzenesulfonamide]
reduction in tumor volume [1]: 69% | Tumor Volume ([1]; valdecoxib 160 ppm in diet, day 11): 0.06 mL | Tumor Volume ([1]; valdecoxib 160 ppm in diet, day 14): 0.13 mL | Tumor Volume ([1]; valdecoxib 160 ppm in diet, day 18): 0.17 mL | Tumor Volume ([1]; valdecoxib 160 ppm in diet, day 21): 0.2 mL | Tumor Volume ([1]; valdecoxib 160 ppm in diet, day 28): 0.25 mL | Tumor Volume ([1]; valdecoxib 160 ppm in diet, day 35): 0.32 mL | Tumor Volume ([1]; valdecoxib 160 ppm in diet, day 42): 0.36 mL
